The source made the active and inactive calls. The rule behind the calls is not given here.
System: CCRIS mutagenicity, Ames/micronucleus/aberration tests
Test: CCRIS mutagenicity studies
[1] = Test System: AMES SALMONELLA TYPHIMURIUM, Strain/Indicator: TA98, Metabolic Activation: NONE, Method: STANDARD PLATE
[2] = Test System: AMES SALMONELLA TYPHIMURIUM, Strain/Indicator: TA98, Metabolic Activation: RAT, LIVER, S-9, AROCLOR 1254, Method: STANDARD PLATE
[3] = Test System: AMES SALMONELLA TYPHIMURIUM, Strain/Indicator: TA100, Metabolic Activation: NONE, Method: STANDARD PLATE
[4] = Test System: AMES SALMONELLA TYPHIMURIUM, Strain/Indicator: TA100, Metabolic Activation: RAT, LIVER, S-9, AROCLOR 1254, Method: STANDARD PLATE

CC1=C(/C=C/C(C)=C/C=C/C(C)=C/C=C/C=C(C)/C=C/C=C(C)/C=C/C2=C(C)C(=O)CCC2(C)C)C(C)(C)CCC1=O
mutagenic call [1]: inactive; negative
mutagenic call [2]: inactive; negative
mutagenic call [3]: inactive; negative
mutagenic call [4]: inactive; negative

O=[N+]([O-])C1=Cc2cccc3cccc(c23)O1
mutagenic call [1]: inactive; negative
mutagenic call (Test System: AMES SALMONELLA TYPHIMURIUM, Strain/Indicator: TA98, Metabolic Activation: S-9, Method: STANDARD PLATE): inactive; negative
mutagenic call [3]: active; positive
mutagenic call (Test System: AMES SALMONELLA TYPHIMURIUM, Strain/Indicator: TA100, Metabolic Activation: S-9, Method: STANDARD PLATE): inactive; negative

Cc1cn(/C=C/C=O)c(=O)[nH]c1=O
mutagenic call (Test System: AMES SALMONELLA TYPHIMURIUM, Strain/Indicator: HISD3052, Metabolic Activation: NONE, Method: STANDARD PLATE): active; positive

CN
mutagenic call (Test System: AMES SALMONELLA TYPHIMURIUM, Strain/Indicator: TA98, Metabolic Activation: NONE, Method: GAS EXPOSURE): inactive; negative
mutagenic call (Test System: AMES SALMONELLA TYPHIMURIUM, Strain/Indicator: TA98, Metabolic Activation: NONE, Method: PREINCUBATION): inactive; negative
mutagenic call (Test System: AMES SALMONELLA TYPHIMURIUM, Strain/Indicator: TA98, Metabolic Activation: RAT, LIVER, S-9, AROCLOR 1254 (5,15 OR 30%), Method: PREINCUBATION): inactive; negative
mutagenic call (Test System: AMES SALMONELLA TYPHIMURIUM, Strain/Indicator: TA98, Metabolic Activation: RAT, LIVER, S-9, SODIUM PHENOBARBITAL AND 5,6-BENZOFLAVONE, Method: GAS EXPOSURE): inactive; negative
mutagenic call (Test System: AMES SALMONELLA TYPHIMURIUM, Strain/Indicator: TA100, Metabolic Activation: NONE, Method: GAS EXPOSURE): inactive; negative
mutagenic call (Test System: AMES SALMONELLA TYPHIMURIUM, Strain/Indicator: TA100, Metabolic Activation: NONE, Method: PREINCUBATION): inactive; negative
mutagenic call (Test System: AMES SALMONELLA TYPHIMURIUM, Strain/Indicator: TA100, Metabolic Activation: RAT, LIVER, S-9, AROCLOR 1254 (5,15 OR 30%), Method: PREINCUBATION): inactive; negative
mutagenic call (Test System: AMES SALMONELLA TYPHIMURIUM, Strain/Indicator: TA100, Metabolic Activation: RAT, LIVER, S-9, SODIUM PHENOBARBITAL AND 5,6-BENZOFLAVONE, Method: GAS EXPOSURE): inactive; negative
mutagenic call (Test System: AMES SALMONELLA TYPHIMURIUM, Strain/Indicator: TA104, Metabolic Activation: NONE, Method: PREINCUBATION): inactive; negative
mutagenic call (Test System: AMES SALMONELLA TYPHIMURIUM, Strain/Indicator: TA104, Metabolic Activation: RAT, LIVER, S-9, AROCLOR 1254 (5,15 OR 30%), Method: PREINCUBATION): inactive; negative
mutagenic call (Test System: AMES SALMONELLA TYPHIMURIUM, Strain/Indicator: TA1535, Metabolic Activation: NONE, Method: GAS EXPOSURE): inactive; negative
mutagenic call (Test System: AMES SALMONELLA TYPHIMURIUM, Strain/Indicator: TA1535, Metabolic Activation: RAT, LIVER, S-9, SODIUM PHENOBARBITAL AND 5,6-BENZOFLAVONE, Method: GAS EXPOSURE): inactive; negative
mutagenic call (Test System: AMES SALMONELLA TYPHIMURIUM, Strain/Indicator: TA1537, Metabolic Activation: NONE, Method: GAS EXPOSURE): inactive; negative
mutagenic call (Test System: AMES SALMONELLA TYPHIMURIUM, Strain/Indicator: TA1537, Metabolic Activation: RAT, LIVER, S-9, SODIUM PHENOBARBITAL AND 5,6-BENZOFLAVONE, Method: GAS EXPOSURE): inactive; negative
mutagenic call (Test System: E. COLI, Strain/Indicator: WP2UVRA, Metabolic Activation: NONE, Method: GAS EXPOSURE): inactive; negative
mutagenic call (Test System: E. COLI, Strain/Indicator: WP2UVRA, Metabolic Activation: RAT, LIVER, S-9, SODIUM PHENOBARBITAL AND 5,6-BENZOFLAVONE, Method: GAS EXPOSURE): inactive; negative
mutagenic call (Test System: MOUSE LYMPHOMA, Strain/Indicator: L5178Y (TK+/TK-), Metabolic Activation: NONE, Method: SUSPENSION/PLATE): active; positive

O=C(COc1ccc(Cl)cc1Cl)N[C@@H](Cc1c[nH]c2ccccc12)C(=O)O
mutagenic call (Test System: AMES SALMONELLA TYPHIMURIUM, Strain/Indicator: TA97, Metabolic Activation: RAT, LIVER, S-9, AROCLOR 1254, Method: STANDARD PLATE): inactive; negative
mutagenic call (Test System: AMES SALMONELLA TYPHIMURIUM, Strain/Indicator: TA97, Metabolic Activation: WOODCHUCK, LIVER, S-9, 3-METHYLCHOLANTHRENE, Method: STANDARD PLATE): inactive; negative
mutagenic call [2]: inactive; negative
mutagenic call (Test System: AMES SALMONELLA TYPHIMURIUM, Strain/Indicator: TA98, Metabolic Activation: WOODCHUCK, LIVER, S-9, 3-METHYLCHOLANTHRENE, Method: STANDARD PLATE): inactive; negative
mutagenic call [4]: inactive; negative
mutagenic call (Test System: AMES SALMONELLA TYPHIMURIUM, Strain/Indicator: TA100, Metabolic Activation: WOODCHUCK, LIVER, S-9, 3-METHYLCHOLANTHRENE, Method: STANDARD PLATE): inactive; negative
mutagenic call (Test System: AMES SALMONELLA TYPHIMURIUM, Strain/Indicator: TA1535, Metabolic Activation: RAT, LIVER, S-9, AROCLOR 1254, Method: STANDARD PLATE): inactive; negative
mutagenic call (Test System: AMES SALMONELLA TYPHIMURIUM, Strain/Indicator: TA1535, Metabolic Activation: WOODCHUCK, LIVER, S-9, 3-METHYLCHOLANTHRENE, Method: STANDARD PLATE): inactive; negative
mutagenic call (Test System: AMES SALMONELLA TYPHIMURIUM, Strain/Indicator: TA1538, Metabolic Activation: RAT, LIVER, S-9, AROCLOR 1254, Method: STANDARD PLATE): inactive; negative
mutagenic call (Test System: AMES SALMONELLA TYPHIMURIUM, Strain/Indicator: TA1538, Metabolic Activation: WOODCHUCK, LIVER, S-9, 3-METHYLCHOLANTHRENE, Method: STANDARD PLATE): inactive; negative

Cn1c(N)nc2nc3ccccc3cc21
mutagenic call (Test System: AMES SALMONELLA TYPHIMURIUM, Strain/Indicator: TA98, Metabolic Activation: RAT, LIVER, S-9, AROCLOR 1254A, Method: STANDARD PLATE): active; positive
mutagenic call (Test System: AMES SALMONELLA TYPHIMURIUM, Strain/Indicator: YG1024, Metabolic Activation: RAT, LIVER, S-9, AROCLOR 1254A, Method: STANDARD PLATE): active; positive

CC(Cl)(Cl)Cl
mutagenic call (End Point: IN VITRO CHROMOSOMAL ABERRATIONS, Test System: CHINESE HAMSTER OVARY CELLS, Metabolic Activation: NONE): active; positive
mutagenic call (End Point: IN VITRO CHROMOSOMAL ABERRATIONS, Test System: CHINESE HAMSTER OVARY CELLS, Metabolic Activation: RAT, LIVER, S-9, AROCLOR 1254): inactive; negative
mutagenic call (End Point: In vitro chromosomal aberrations, Test System: Chinese hamster lung (CHL/IU) cells, Metabolic Activation: Rat, Liver, S9, Phenobarbital and 5,6-benzoflavone): inactive; negative (structural changes and ploidy showed weak response without dose respon
mutagenic call (Test System: AMES SALMONELLA TYPHIMURIUM, Strain/Indicator: TA97, Metabolic Activation: NONE, Method: STANDARD PLATE): active; positive
mutagenic call (Test System: AMES SALMONELLA TYPHIMURIUM, Strain/Indicator: TA97, Metabolic Activation: RAT, LIVER S-9, AROCLOR 1254, Method: STANDARD PLATE): active; positive
mutagenic call [1]: active; positive
mutagenic call (Test System: AMES SALMONELLA TYPHIMURIUM, Strain/Indicator: TA98, Metabolic Activation: RAT, LIVER S-9, AROCLOR 1254, Method: STANDARD PLATE): active; positive
mutagenic call [3]: active; positive
mutagenic call (Test System: AMES SALMONELLA TYPHIMURIUM, Strain/Indicator: TA100, Metabolic Activation: NONE, Method: VAPOR CHAMBER): active; positive
mutagenic call (Test System: AMES SALMONELLA TYPHIMURIUM, Strain/Indicator: TA100, Metabolic Activation: RAT, LIVER S-9, AROCLOR 1254, Method: STANDARD PLATE): inactive; negative
mutagenic call (Test System: AMES SALMONELLA TYPHIMURIUM, Strain/Indicator: TA100, Metabolic Activation: RAT, LIVER, S-9, AROCLOR 1254, Method: DESICCATOR): active; positive
mutagenic call (Test System: AMES SALMONELLA TYPHIMURIUM, Strain/Indicator: TA100, Metabolic Activation: RAT, LIVER, S-9, AROCLOR 1254, Method: VAPOR CHAMBER): active; positive
mutagenic call (Test System: AMES SALMONELLA TYPHIMURIUM, Strain/Indicator: TA104, Metabolic Activation: NONE, Method: STANDARD PLATE): inactive; negative
mutagenic call (Test System: AMES SALMONELLA TYPHIMURIUM, Strain/Indicator: TA104, Metabolic Activation: RAT, LIVER, S-9, AROCLOR 1254, Method: STANDARD PLATE): active; positive
mutagenic call (Test System: AMES SALMONELLA TYPHIMURIUM, Strain/Indicator: TA1535, Metabolic Activation: NONE, Method: VAPOR CHAMBER): active; positive
mutagenic call (Test System: AMES SALMONELLA TYPHIMURIUM, Strain/Indicator: TA1535, Metabolic Activation: RAT, LIVER, S-9, AROCLOR 1254, Method: VAPOR CHAMBER): active; positive

Reference: PubChem BioAssay AID1259407 (Chemical Carcinogenesis Research Information System (CCRIS), 2018)
